These results are taken from patent US10342790B2, “Use of ceranib-2 in the treatment of lung cancer” (ANADOLU UNIVERSITESI REKTORLUGU, priority 2017, dated 2019).

One data set concerns synergistic tumor model. The following applies: 20-50 mg/kg; cited from earlier work.
Another data set deals with MCF-7 cell line. Kind of data set: Confocal microscopy of MCF-7 cells. Type of data set: cell-based, human. The following applies: MCF-7 cells treated for 24 hours, acridine orange and phalloidine. The text has this:
In FIG. 1, the confocal microscopy images are provided belonging to the study made on the MCF-7 cell line. In the control cells, a tight and normal cell and cell nucleus structure are seen (FIG. 1A).
FIG. 1: Confocal electron transmission microscope image of MCF-7 cells painted with acridine orange and phalloidine.

The test system of a further data set is MCF-7 cells. Kind of data set: Electron micrographs of MCF-7 cells. Type of data set: cell-based, human. The following applies: MCF-7 cells treated for 24 hours. The source says:
In FIG. 2, electron micrographs of the MCF-7 cells are seen.
FIG. 2: Electron transmission micrographs of MCF-7 cells.

For data set [1] the following is noted: value mentioned in the sources; read-out: IC50 concentration in cell-based experiments (in the sources); cited from earlier work.
Another data set deals with 5RP7 cells. The data set can be described thus: IC50 in 5RP7 cells (cytotoxicity). Type of data set: cell-based. The following applies: read-out: IC50 concentration in 5RP7 cells.
In data set [2] the test system is MCF-7 human breast cancer cells. Kind of data set: IC50 in MCF-7 cells (cytotoxicity). Type of data set: cell-based. To be noted: read-out: IC50 concentration in MCF-7 human breast cancer cells.
Data set [3] deals with A549 human lung adeno-carcinoma cells. Kind of data set: MTT cyto-toxicity test, A549 cells. The following applies: 24 hours incubation, read-out: IC50 concentration in A549 lung cancer cells. Type of data set: cell-based. How it is done: A549 human lung adeno-carcinoma cells have been implanted to the cell culture plates with 96 wells such that there are 2×10^3 cells per well. The cells implanted to the plate have been incubated at 37° C. and in a medium of 5% carbon dioxide. A549 cells have been incubated for 24 hours in the concentration range of 5-65 μM with synthesized ceranib-2. At the end of the duration, 20 μL MTT dye (5 mg/mL) has been added to each well and it has been incubated for 2 hours more at 37° C. After the incubation, the liquid part in each well on the plate is discharged and 200 μL DMSO has been added for dissolving the formazan salts formed by viable cells and it has been waited for 10 minutes at room temperature. The color change occurring has been read at wavelength of 570 nm on the ELx808-IU (Bio-Tek, USA) plate reader. The experiment has been repeated 3 times. Separate viability values have been calculated according to the control group for each dose.

In data set [4] the test system is A549 lung cancer cell line. The data set can be described thus: Microscopy of structural changes in A549 cells. Type of data set: cell-based, human. To be noted: A549 cells treated for 24 hours. The text has this: In FIG. 3, the confocal microscope images of the study made on A549 type cells which is a lung cancer cell line are given.
FIG. 3: Electron transmission microscope images showing the structural changes in A549 cells.

The next data set has as its system NIH/3T3 cells. The data set can be described thus: IC50 in NIH/3T3 cells (cytotoxicity). Type of data set: cell-based. To be noted: read-out: IC50 concentration in NIH/3T3 cells.

Turning to `COc1ccc(C=CC(=O)c2c(-c3ccccc3)c3ccccc3[nH]c2=O)cc1` [ceranib-2, 3-[3-(4-methoxyphenyl)-1-oxo-2-prpen-1-yl]-4-phenyl-2(1H)-quinolinone], the Toxicity in vivo result with synergistic tumor model is on record as “without leading to toxicity”. Also, the Tumor growth entry in the data set with synergistic tumor model is listed as “inhibits tumor growth”. Besides, the “Cell morphology, confocal microscopy (FIG. 1)” value in the data set on MCF-7 cell line is “condensation is observed in the chromatin, holes are observed in the cell structure, shrunken cell nucleus is observed and fragmentizing cells are observed”. Moreover, in the data set on MCF-7 cells, the “Cell ultrastructure, electron micrographs (FIG. 2)” value was “the nucleus membrane is lost and the mitochondria is deformed”. The IC50 in data set [1] was around 28 µM; in the data set with 5RP7 cells, 3 µM; in data set [2] it was 13 µM; in data set [3], 14 µM; in the data set with NIH/3T3 cells it was 5 µM. Besides, the “Structural changes in cells, microscopy (FIG. 3)” value in [4] is “the cell nucleus is fragmentized, the cell shape is transformed from oval to round and deformations begin in the cell membrane, lipid drops are formed inside the cell, DNA fragmentizing occurs and holes occur inside the cell”.
